System: SH-SY5Y cells
Assay: Neuroprotective activity toward OAβ1-42 (MTT assay)
Format: cell-based, human
Details: 5 μM, concomitant treatment with OAβ1−42 10 μM
Method: Next, we investigated the neuroprotective effects of (R)-28 in SH-SY5Y cells against the neurotoxicity induced by neurotoxins. These included hydrogen peroxide (H2O2, 100 μM) and amyloid-β 1–42 oligomers (OAβ1−42, 10 μM), that mimic general oxidative stress and Alzheimer’s disease (AD), respectively. […] Still, these neuroprotective effects against the oxidative stress underline the potential usefulness of inhibitor (R)-28 in the AD therapeutic area.
5. Investigation of Cellular GSK-3α/β Inhibition by (R)-28 and Its Neuroprotective Effects […]
SH-SY5Y cells were seeded in a 96-well plate at 2 × 10^4 cells/well, incubated for 24 h and then treated with various concentrations (1.25–40 µM) of (R)-28 for 24 h. Cell viability, in terms of mitochondrial activity, was evaluated by MTT assay, as previously described. […]
SH-SY5Y cells were seeded in a 96-well plate at 2 × 10^4 cells/well, incubated for 24 h and subsequently treated with (R)-28 (5 µM) and H 2O2 (100 µM) for 1 h. […] The neuroprotective activity was measured by using the MTT assay as previously described . Data are expressed as a percentage of neurotoxicity versus untreated cells. […]
SH-SY5Y cells were seeded in a 96-well plate at 3 × 10^4 cells/well, incubated for 24 h, and subsequently treated with (R)-28 (5 µM) and OAβ 1-42 (10 µM) for 4 h. The neuroprotective activity was measured by using the MTT assay as previously described. […]

CCC(=O)N1CCC[C@@H](N(C)c2ncnc3[nH]c4cc(Br)ccc4c23)C1 [Compound (R)-28, (R)-1-(3-((7-bromo-9H-pyrimido[4,5-b]indol-4-yl)(methyl)amino)piperidin-1-yl)propan-1-one]
neurotoxicity elicited by OAβ1−42: not

— article PMC7659979, “Discovery and Evaluation of Enantiopure 9H-pyrimido[4,5-b]indoles as Nanomolar GSK-3β Inhibitors with Improved Metabolic Stability” (International Journal of Molecular Sciences, 2020)
